Reference: ChEMBL document CHEMBL4417636, “Small molecule inhibitors of pendrin ion exchange and pharmaceutical compositions” (2017)
Calls of active or inactive are those of the source. No cut-off for these calls is given here.

Legend:
Mus musculus [1] = experiment: Effect on renal function in C57B/6 mouse assessed as effect on blood gas values at 50 mg/kg, ip; format: ADME, organism-based; conditions: in vivo
Mus musculus [2] = experiment: Effect on renal function in CD1 mouse assessed as effect on urine pH at 50 mg/kg, ip; format: ADME, organism-based; conditions: in vivo
Pendrin (Homo sapiens) [3] = biological target: T1, Pendrin (Homo sapiens) (UniProt O43511); experiment: Inhibition of human pendrin expressed in FRT cells co-expressing EYFP-HIF assessed as reduction in pendrin-mediated C17SCN(-) exchange incubated for 10 mins by pH-sensitive fluorescent probe BCECF-AM based fluorescence assay relative to control; format: cell-based
T1 sequence (whole entry): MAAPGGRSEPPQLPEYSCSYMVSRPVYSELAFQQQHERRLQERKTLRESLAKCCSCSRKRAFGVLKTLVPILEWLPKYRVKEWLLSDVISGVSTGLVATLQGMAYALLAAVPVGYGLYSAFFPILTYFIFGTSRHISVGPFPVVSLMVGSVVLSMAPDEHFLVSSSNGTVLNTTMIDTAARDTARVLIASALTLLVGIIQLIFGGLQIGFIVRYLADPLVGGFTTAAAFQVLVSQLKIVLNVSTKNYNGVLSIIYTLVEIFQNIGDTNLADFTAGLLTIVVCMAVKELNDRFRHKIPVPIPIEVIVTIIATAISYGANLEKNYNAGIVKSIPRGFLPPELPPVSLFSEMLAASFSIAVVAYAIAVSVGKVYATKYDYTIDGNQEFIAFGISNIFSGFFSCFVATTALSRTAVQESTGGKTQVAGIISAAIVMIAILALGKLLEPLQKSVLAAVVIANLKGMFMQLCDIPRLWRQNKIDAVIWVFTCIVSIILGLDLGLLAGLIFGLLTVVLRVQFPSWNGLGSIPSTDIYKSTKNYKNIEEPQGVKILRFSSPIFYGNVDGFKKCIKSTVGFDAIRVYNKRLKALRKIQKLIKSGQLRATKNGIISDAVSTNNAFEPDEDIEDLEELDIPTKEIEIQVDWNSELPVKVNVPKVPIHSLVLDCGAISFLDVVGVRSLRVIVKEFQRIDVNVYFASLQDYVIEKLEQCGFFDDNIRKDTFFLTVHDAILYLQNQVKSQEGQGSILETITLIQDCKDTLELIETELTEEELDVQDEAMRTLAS

Mus musculus [4] = experiment: Potentiation of 20 mg/kg, ip bid for 8 days furosemide-induced chronic diuretic action in CD1 mouse assessed as effect on urine osmolarity at 10 mg/kg, ip measured at 3 hrs relative to control; format: functional, organism-based
Pendrin (Homo sapiens) [5] = biological target: T1, Pendrin (Homo sapiens); experiment: Reversible inhibition of human pendrin expressed in FRT cells co-expressing EYFP-HIF assessed as reduction in pendrin-mediated C17SCN(-) exchange incubated for 10 mins measured after wash out by pH-sensitive fluorescent probe BCECF-AM based fluorescence assay relative to control; format: cell-based
Mus musculus [6] = experiment: Potentiation of 20 mg/kg, ip bid for 8 days furosemide-induced chronic diuretic action in CD1 mouse assessed as increase in urinary Na+ excretion at 10 mg/kg, ip measured at 3 hrs relative to control; format: functional, organism-based
Pendrin (Mus musculus) = biological target: T2, Pendrin (Mus musculus) (UniProt Q9R155); experiment: Inhibition of mouse pendrin expressed in FRT cells co-expressing YFP-HIF assessed as reduction in pendrin-mediated exchange of Cl(-) with SCN(-) by pH-sensitive fluorescent probe BCECF-AM based fluorescence assay relative to control; format: cell-based
T2 sequence (whole entry): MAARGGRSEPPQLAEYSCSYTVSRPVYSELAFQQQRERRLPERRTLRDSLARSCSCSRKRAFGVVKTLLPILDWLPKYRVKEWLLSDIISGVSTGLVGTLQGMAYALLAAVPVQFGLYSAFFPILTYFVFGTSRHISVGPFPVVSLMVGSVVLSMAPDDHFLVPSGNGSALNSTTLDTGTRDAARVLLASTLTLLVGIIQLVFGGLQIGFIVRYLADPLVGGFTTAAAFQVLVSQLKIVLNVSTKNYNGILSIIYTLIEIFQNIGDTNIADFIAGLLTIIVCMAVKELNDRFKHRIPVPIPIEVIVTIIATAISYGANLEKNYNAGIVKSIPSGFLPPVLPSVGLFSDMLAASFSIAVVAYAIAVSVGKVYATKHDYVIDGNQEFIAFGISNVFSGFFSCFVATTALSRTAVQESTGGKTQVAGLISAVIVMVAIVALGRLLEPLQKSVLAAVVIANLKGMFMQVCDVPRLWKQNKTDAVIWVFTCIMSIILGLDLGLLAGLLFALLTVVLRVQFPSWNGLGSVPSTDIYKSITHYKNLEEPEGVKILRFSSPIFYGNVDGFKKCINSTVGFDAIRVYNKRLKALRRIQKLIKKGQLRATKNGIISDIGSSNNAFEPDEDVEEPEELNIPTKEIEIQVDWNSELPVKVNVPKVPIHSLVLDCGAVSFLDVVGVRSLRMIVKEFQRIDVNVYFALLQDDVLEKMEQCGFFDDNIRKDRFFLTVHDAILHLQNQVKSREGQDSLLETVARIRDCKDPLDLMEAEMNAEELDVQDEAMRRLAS

Mus musculus [7] = experiment: Effect on renal function in C57B/6 mouse assessed as effect on urinary salt excretion at 50 mg/kg, ip measured at 3 hrs; format: ADME, organism-based; conditions: in vivo
Mus musculus [8] = experiment: Potentiation of 20 mg/kg, ip furosemide-induced acute diuretic action in CD1 mouse assessed as induction of metabolic alkalosis at 10 mg/kg, ip; format: functional, organism-based
Mus musculus [9] = experiment: Potentiation of 20 mg/kg, ip bid for 8 days furosemide-induced chronic diuretic action in CD1 mouse assessed as increase in urinary K+ excretion at 10 mg/kg, ip measured at 3 hrs relative to control; format: functional, organism-based
Pendrin (Homo sapiens) [10] = biological target: T1, Pendrin (Homo sapiens); experiment: Inhibition of human pendrin expressed in FRT cells co-expressing EYFP-HIF assessed as reduction in pendrin-mediated C17HCO3(-) exchange by measuring reduction in cytoplasmic alkalinization exchange at 25 uM by pH-sensitive fluorescent probe BCECF-AM based fluorescence assay relative to control; format: cell-based
Pendrin (Homo sapiens) [11] = biological target: T1, Pendrin (Homo sapiens); experiment: Inhibition of human pendrin expressed in FRT cells co-expressing EYFP-HIF assessed as reduction in pendrin-mediated C17F exchange incubated for 10 mins by pH-sensitive fluorescent probe BCECF-AM based fluorescence assay relative to control; format: cell-based
Mus musculus [12] = experiment: Effect on renal function in CD1 mouse assessed as effect on blood gas values at 50 mg/kg, ip; format: ADME, organism-based; conditions: in vivo
Mus musculus [13] = experiment: Effect on renal function in CD1 mouse assessed as effect on urinary salt excretion at 50 mg/kg, ip measured at 3 hrs; format: ADME, organism-based; conditions: in vivo
Pendrin (Homo sapiens) [14] = biological target: T1, Pendrin (Homo sapiens); experiment: Time dependent inhibition of human pendrin expressed in FRT cells co-expressing EYFP-HIF assessed as reduction in pendrin-mediated C17SCN(-) exchange by pH-sensitive fluorescent probe BCECF-AM based fluorescence assay relative to control; format: cell-based; conditions: TDE = time-dependent effect
Mus musculus [15] = experiment: Effect on renal function in C57B/6 mouse assessed as effect on urine pH at 50 mg/kg, ip; format: ADME, organism-based; conditions: in vivo
Homo sapiens [16] = species on record: Homo sapiens; experiment: Effect on gluconate gradient-induced Cl/HC03- efflux in NHBE cells at 25 uM; format: functional, cell-based
Homo sapiens [17] = species on record: Homo sapiens; experiment: Effect on airway surface liquid pH in IL13-stimulated human CFBE at 25 uM by pH-sensitive fluorophore BCECF based fluorescence based assay; format: functional

| inhibition (Pendrin (Homo sapiens) [3]) | inhibition (Pendrin (Homo sapiens) [5]) | inhibition (Pendrin (Mus musculus)) | inhibition (Pendrin (Homo sapiens) [10]) | inhibition (Pendrin (Homo sapiens) [11]) | inhibition (Pendrin (Homo sapiens) [14]) | Compound | Activity (Mus musculus [1]) | Activity (Mus musculus [2]) | Activity (Mus musculus [4]) | Activity (Mus musculus [6]) | Activity (Mus musculus [7]) | Activity (Mus musculus [8]) | Activity (Mus musculus [9]) | Activity (Mus musculus [12]) | Activity (Mus musculus [13]) | Activity (Mus musculus [15]) | Activity (Homo sapiens [16]) | Activity (Homo sapiens [17]) |
| --- | --- | --- | --- | --- | --- | --- | --- | --- | --- | --- | --- | --- | --- | --- | --- | --- | --- | --- |
| Dose-dependent effect | Active | Dose-dependent effect | Active | Dose-dependent effect | Tde | Cc1n[nH]c(-c2cc(S(=O)(=O)NC3CCCc4ccccc43)c(C)s2)c1C (configuration not stated) | Non-Toxic | Non-Toxic | inactive | Active | Non-Toxic | Active | Active | Non-Toxic | Non-Toxic | Non-Toxic | – | – |
| Dose-dependent effect | Active | – | Active | Dose-dependent effect | Tde | Cn1nc(COc2cccc(F)c2)c2c1CCN(C(=O)Nc1ccc(Cl)cc1)C2 | Non-Toxic | Non-Toxic | inactive | Active | Non-Toxic | – | Active | Non-Toxic | Non-Toxic | Non-Toxic | inactive | inactive |
